Measurements taken from patent US20240300958A1, “COMPOUNDS AND THE USES AND PHARMACEUTICAL COMPOSITIONS THEREOF” (BEIJING YOUZHUJU NETWORK TECHNOLOGY CO. LTD., priority 2023, published 2024).
Like-named read-outs stand apart in the source and are kept apart here.

Columns and labels:
[1] = system: α-smooth muscle actin (α-SMA) expression; test: Inhibition of DDR1-mediated lung fibrosis (α-SMA expression) in hTGFβ1-stimulated MRC-5 cells (western blot); format: cell-based, Human; conditions: for Ratio of α-SMA to GAPDH / α-SMA signal: hTGFβ1 2.5 ng/ml
Protocol: Human embryonic lung fibroblast MRC-5 cells were inoculated in a 6-well plate and incubated overnight at 37° C. and 5% CO2. 2 μL of compound C1 (gradient concentration in DMSO solution) was added to a cell plate with prepared cells, and was incubated overnight at 37° C. and 5% CO2. hTGFβ1 (which can stimulate DDR1-mediated lung fibrosis manifested by up-regulation of α-smooth muscle actin (α-SMA) expression) was added to the cell plate and incubated at 37° C. and 5% CO2 for 2 hours. Harvest of cell lysates: culture medium was aspirated as much as possible at the end of the culture until the wells were almost dry. 200 μL of ice-cold lysis buffer was added. Lysate was collected into a 1.5 mL eppendorf tube through scraping. Brief vortex was followed by spinning at 12000 rpm for 15 minutes in a refrigerated centrifuge. 5× protein electrophoresis loading buffer was added and then the sample was boiled. The sample supernatant was added to a SDS-PAGE gel, followed by electrophoresis, electrotransfer, blocking, primary antibody (anti-α-SMA antibody and anti-GAPDH antibody) incubation, washing, secondary antibody incubation, washing, and fluorescence development.

[2] = molecular target: IGF1R (Homo sapiens (Human), UniProt P08069); test: Kinase inhibition profile (HTRF / ADP Glo kinase assay); format: biochemical
Protocol: (§1) HTRF kinase assay: 2×ATP and substrate solution as well as 2× kinase and metal solution were prepared with assay buffer. 25 nL of compound was transferred to 384-well assay plate by Echo 655. After centrifugation, 2.5 μL of 2× kinase/metal ion solution was added to the 384-well assay plate followed by incubation at 25° C. for 10 min. 2.5 μL of 2× substrate and ATP solution was added to the wells followed by incubation at 25° C. for 60 min. 2× XL665 and antibody solution was prepared with assay buffer. 5 μL of kinase detection reagent was added to the wells followed by incubation at 25° C. for 60 min. Fluorescence signals at 620 nm (Cryptate) and 665 nm (XL665) were read with a microtiter plate reader. ADP Glo kinase assay: 2×ATP and substrate solution as well as 2× kinase and metal solution were prepared with assay buffer. 20 nL of compound was transferred to 384-well assay plate by Echo 655. 2 μL of 2× kinase/metal ion solution was added followed by incubation at 25° C. for 10 min in the 384-well assay plate. 2 μL of 2× substrate and ATP solution was added to the wells followed by incubation at 25° C. for 60 min. 4 μL of ADP Glo reagent was added to the wells followed by incubation at 25° C. for 40 min. 8 μL of kinase test reagent was added to the wells followed by incubation at 25° C. for 40 min. The luminescence signals were recorded on a microtiter plate reader. Data analysis: the reaction control (0.5% DMSO) reading was set to 0% inhibition, and the background (10 μM positive control) reading was set to 100% inhibition, then the percent inhibition for each test solution was calculated and the results are shown in Table 2 and FIG. 3.

[3] = molecular target: MAP2K1 (Homo sapiens (Human), UniProt Q02750); test: as above; format: biochemical
Protocol: as §1

[4] = molecular target: CK1γ3 (Homo sapiens (Human), UniProt Q9Y6M4); test: as above; format: biochemical
Protocol: as §1

[5] = molecular target: RSK1 (Homo sapiens (Human), UniProt Q15418); test: as above; format: biochemical
Protocol: as §1

[6] = molecular target: TSSK1 (Homo sapiens (Human), UniProt Q9BXA7); test: as above; format: biochemical
Protocol: as §1

[7] = molecular target: phosphorylated DDR1 (p-DDR1) (Homo sapiens (Human), UniProt Q08345); test: Inhibition of phosphorylated DDR1 (p-DDR1) in T47D cells stimulated with rat tail collagen (western blot); format: cell-based
Protocol: Human breast ductal carcinoma cell line T47D cells were inoculated in a 6-well plate and incubated overnight at 37° C. and 5% CO2. After the cells are prepared, 2 μL of Compound C1 (DMSO solution of gradient concentrations) was added to a cell plate which was incubated at 37° C. and 5% CO2 for 24 hours. Rat tail collagen (capable of stimulating DDR1 phosphorylation) was added to the cell plate followed by incubation for 2 hours at 37° C. and 5% CO2. Harvest of cell lysates: culture medium was aspirated as much as possible at the end of the culture until the wells were almost dry. 200 μL of ice-cold lysis buffer was added. Lysate was collected into a 1.5 mL eppendorf tube through scraping. Brief vortex was followed by spin at 12000 rpm for 15 minutes in a refrigerated centrifuge. 5× protein electrophoresis loading buffer was added and then the sample was boiled. The sample supernatant was added to a SDS-PAGE gel, followed by electrophoresis, electrotransfer, blocking, primary antibody (anti-phospho-DDR1 antibody and anti-GAPDH antibody) incubation, washing, secondary antibody incubation, washing, and fluorescence development.

[8] = 1 uM Compound C1, read-out: % Inhibition (First measurement)
[9] = 1 uM Compound C1, read-out: % Inhibition (Second measurement)
[10] = 1 uM Compound C1, read-out: Average inhibition (%)

MAP2K1, sequence (Q02750 whole entry, species assumed): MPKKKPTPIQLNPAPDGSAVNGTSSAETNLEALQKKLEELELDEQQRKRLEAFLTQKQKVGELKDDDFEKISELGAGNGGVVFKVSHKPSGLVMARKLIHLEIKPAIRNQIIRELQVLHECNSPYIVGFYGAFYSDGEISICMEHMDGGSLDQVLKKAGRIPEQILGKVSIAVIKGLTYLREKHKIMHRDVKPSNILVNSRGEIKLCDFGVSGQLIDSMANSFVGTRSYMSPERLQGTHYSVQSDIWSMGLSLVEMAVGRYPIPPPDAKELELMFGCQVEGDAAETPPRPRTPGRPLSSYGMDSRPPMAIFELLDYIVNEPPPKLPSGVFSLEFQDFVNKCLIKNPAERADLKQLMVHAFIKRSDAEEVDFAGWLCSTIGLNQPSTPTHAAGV
CK1γ3, sequence (Q9Y6M4 whole entry): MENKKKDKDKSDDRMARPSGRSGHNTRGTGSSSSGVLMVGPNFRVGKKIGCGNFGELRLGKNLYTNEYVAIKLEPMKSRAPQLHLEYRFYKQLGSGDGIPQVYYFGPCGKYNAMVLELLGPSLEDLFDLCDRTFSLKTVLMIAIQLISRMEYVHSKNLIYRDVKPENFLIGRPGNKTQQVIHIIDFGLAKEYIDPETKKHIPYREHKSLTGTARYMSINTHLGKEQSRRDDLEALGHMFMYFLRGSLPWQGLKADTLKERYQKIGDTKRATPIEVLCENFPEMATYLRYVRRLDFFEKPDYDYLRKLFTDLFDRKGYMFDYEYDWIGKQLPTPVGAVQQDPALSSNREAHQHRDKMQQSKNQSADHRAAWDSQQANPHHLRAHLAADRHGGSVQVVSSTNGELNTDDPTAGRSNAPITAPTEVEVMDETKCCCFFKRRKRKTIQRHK
phosphorylated DDR1 (p-DDR1), sequence (Q08345 19-913): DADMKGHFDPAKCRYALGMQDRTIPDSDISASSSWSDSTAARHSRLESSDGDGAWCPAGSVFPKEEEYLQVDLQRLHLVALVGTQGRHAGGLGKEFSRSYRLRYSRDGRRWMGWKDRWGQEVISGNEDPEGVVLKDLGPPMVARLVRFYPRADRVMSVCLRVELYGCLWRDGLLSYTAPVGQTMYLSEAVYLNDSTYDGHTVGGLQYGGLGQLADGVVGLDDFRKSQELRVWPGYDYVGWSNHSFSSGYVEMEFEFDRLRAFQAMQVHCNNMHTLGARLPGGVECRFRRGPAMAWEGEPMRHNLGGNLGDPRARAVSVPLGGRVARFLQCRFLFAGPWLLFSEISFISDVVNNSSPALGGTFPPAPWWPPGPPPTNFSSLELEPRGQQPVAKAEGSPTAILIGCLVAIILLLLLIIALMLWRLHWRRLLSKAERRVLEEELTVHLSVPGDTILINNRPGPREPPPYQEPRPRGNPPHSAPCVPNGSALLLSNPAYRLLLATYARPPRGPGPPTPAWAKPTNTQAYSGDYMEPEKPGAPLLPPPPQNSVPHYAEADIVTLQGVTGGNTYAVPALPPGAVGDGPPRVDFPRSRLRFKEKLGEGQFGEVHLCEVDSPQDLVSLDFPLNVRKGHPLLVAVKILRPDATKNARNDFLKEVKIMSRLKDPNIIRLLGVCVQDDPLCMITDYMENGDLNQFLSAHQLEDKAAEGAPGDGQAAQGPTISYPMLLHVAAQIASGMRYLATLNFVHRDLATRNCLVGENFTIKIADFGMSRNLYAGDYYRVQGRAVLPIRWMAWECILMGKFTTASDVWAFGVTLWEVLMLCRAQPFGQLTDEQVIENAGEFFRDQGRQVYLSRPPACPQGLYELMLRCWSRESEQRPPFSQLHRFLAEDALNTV
IGF1R, sequence (P08069 31-1367, species assumed): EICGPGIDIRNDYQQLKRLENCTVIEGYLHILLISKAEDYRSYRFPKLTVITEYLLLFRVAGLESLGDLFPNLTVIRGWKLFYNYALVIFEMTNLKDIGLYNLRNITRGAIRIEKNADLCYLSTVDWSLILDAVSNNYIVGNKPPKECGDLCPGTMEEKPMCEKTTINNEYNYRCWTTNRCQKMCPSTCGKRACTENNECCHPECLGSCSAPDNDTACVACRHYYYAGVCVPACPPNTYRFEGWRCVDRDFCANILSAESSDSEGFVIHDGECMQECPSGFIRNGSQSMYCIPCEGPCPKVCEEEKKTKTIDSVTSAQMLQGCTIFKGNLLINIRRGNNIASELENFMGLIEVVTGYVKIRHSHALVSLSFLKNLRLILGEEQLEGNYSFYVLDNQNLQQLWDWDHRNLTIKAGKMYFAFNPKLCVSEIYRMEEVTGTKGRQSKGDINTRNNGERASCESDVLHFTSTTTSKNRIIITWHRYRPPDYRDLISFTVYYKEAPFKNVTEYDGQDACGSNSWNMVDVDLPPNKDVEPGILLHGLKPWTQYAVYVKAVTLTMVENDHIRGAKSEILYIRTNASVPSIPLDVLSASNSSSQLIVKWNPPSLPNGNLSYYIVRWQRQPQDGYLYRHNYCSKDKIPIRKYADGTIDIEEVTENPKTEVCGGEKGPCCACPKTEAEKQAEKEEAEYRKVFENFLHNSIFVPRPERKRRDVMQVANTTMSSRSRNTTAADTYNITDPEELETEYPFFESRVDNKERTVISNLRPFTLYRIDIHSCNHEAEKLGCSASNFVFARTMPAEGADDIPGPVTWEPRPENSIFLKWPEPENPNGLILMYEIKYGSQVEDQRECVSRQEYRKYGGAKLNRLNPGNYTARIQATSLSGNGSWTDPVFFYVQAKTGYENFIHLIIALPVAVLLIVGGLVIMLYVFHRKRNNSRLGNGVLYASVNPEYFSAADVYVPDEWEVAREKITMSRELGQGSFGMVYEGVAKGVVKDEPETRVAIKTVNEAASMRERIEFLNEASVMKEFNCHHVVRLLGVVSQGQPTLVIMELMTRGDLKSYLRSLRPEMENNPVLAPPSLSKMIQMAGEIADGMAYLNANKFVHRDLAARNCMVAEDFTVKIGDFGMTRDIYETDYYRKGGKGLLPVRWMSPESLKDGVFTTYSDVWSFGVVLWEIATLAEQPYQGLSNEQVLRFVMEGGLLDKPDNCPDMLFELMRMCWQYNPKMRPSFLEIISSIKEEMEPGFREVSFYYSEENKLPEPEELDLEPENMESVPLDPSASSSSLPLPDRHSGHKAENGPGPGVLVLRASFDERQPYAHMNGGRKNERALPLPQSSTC
TSSK1, sequence (Q9BXA7 whole entry, species assumed): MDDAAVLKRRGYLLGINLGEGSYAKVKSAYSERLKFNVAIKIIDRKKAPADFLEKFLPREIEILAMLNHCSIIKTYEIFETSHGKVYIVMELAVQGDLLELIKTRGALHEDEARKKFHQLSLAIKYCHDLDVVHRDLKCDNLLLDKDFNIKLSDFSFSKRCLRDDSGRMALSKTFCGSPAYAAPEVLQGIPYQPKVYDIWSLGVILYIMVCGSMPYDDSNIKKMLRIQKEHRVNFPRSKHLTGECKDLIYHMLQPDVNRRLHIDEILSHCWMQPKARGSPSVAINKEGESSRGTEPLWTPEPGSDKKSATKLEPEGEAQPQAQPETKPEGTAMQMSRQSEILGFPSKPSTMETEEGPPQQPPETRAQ
RSK1, sequence (Q15418 whole entry, species assumed): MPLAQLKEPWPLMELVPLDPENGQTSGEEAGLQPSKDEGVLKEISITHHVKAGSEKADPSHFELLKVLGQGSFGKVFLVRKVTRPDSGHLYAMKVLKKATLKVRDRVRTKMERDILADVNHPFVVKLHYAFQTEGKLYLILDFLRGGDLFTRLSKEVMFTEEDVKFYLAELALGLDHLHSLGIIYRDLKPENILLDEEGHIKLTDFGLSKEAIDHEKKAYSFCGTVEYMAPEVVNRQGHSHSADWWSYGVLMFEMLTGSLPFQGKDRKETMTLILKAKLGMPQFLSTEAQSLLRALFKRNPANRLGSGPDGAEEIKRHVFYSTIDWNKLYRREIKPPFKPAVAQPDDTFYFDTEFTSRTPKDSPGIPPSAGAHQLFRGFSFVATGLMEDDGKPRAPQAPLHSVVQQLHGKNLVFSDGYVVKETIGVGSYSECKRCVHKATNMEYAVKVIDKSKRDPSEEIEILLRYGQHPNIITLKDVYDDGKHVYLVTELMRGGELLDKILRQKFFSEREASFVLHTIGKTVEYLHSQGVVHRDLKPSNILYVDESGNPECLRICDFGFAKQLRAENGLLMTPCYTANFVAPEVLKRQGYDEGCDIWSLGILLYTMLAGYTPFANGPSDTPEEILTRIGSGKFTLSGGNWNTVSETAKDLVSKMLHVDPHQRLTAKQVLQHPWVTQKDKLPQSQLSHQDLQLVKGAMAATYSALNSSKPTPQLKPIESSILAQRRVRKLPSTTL

inhibition at 1 µM [2, 8]: -0.05%
inhibition at 1 µM [2, 9]: -2.29%
inhibition at 1 µM [2, 10]: -1.17%
inhibition at 1 µM [3, 8]: -5.72%
inhibition at 1 µM [3, 9]: -3.53%
inhibition at 1 µM [3, 10]: -4.62%
inhibition at 1 µM [4, 8]: -7.05%
inhibition at 1 µM [4, 9]: 1.91%
inhibition at 1 µM [4, 10]: -2.57%
inhibition at 1 µM [5, 8]: 0.73%
inhibition at 1 µM [5, 9]: -7.9%
inhibition at 1 µM [5, 10]: -3.59%
inhibition at 1 µM [6, 8]: -15.1%
inhibition at 1 µM [6, 9]: -3.43%
inhibition at 1 µM [6, 10]: -9.28%
Ratio of p-DDR1 to GAPDH ([7]; compound C1 1.5 nM): 0.3282
inhibition at 0.0015 µM ([7]; compound C1 1.5 nM): 51.5%
p-DDR1 signal ([7]; compound C1 1.5 nM): 490770
Ratio of p-DDR1 to GAPDH ([7]; compound C1 4.6 nM): 0.2221
inhibition at 0.0046 µM ([7]; compound C1 4.6 nM): 67.7%
p-DDR1 signal ([7]; compound C1 4.6 nM): 350490
Ratio of p-DDR1 to GAPDH ([7]; compound C1 13.7 nM): 0.3020
inhibition at 0.0137 µM ([7]; compound C1 13.7 nM): 55.5%
p-DDR1 signal ([7]; compound C1 13.7 nM): 417870
Ratio of p-DDR1 to GAPDH ([7]; compound C1 41.1 nM): 0.4145
inhibition at 0.0411 µM ([7]; compound C1 41.1 nM): 38.4%
p-DDR1 signal ([7]; compound C1 41.1 nM): 583470
Ratio of p-DDR1 to GAPDH ([7]; compound C1 123 nM): 0.2107
inhibition at 0.123 µM ([7]; compound C1 123 nM): 69.4%
p-DDR1 signal ([7]; compound C1 123 nM): 313140
Ratio of p-DDR1 to GAPDH ([7]; compound C1 370 nM): 0.1244
inhibition at 0.37 µM ([7]; compound C1 370 nM): 82.5%
p-DDR1 signal ([7]; compound C1 370 nM): 164340
Ratio of p-DDR1 to GAPDH ([7]; compound C1 1111 nM): 0.0363
inhibition at 1.111 µM ([7]; compound C1 1111 nM): 95.9%
p-DDR1 signal ([7]; compound C1 1111 nM): 51870
Ratio of p-DDR1 to GAPDH ([7]; compound C1 3333 nM): 0.0183
inhibition at 3.333 µM ([7]; compound C1 3333 nM): 98.7%
p-DDR1 signal ([7]; compound C1 3333 nM): 27360
Ratio of p-DDR1 to GAPDH ([7]; compound C1 10000 nM): 0.0094
inhibition at 10 µM ([7]; compound C1 10000 nM): 100%
p-DDR1 signal ([7]; compound C1 10000 nM): 14730
Compound: Cc1ccc(C(=O)Nc2ccccn2)cc1C#Cc1cnc2cc(C3=CCCCC3)cnn12 [Compound C1, 3-{2-[7-(cyclohex-1-en-1-yl)imidazo[1,2-b]pyridazin-3-yl]ethynyl}-4-methyl-N-(pyridin-2-yl)benzamide]
Inhibition of DDR1-mediated lung fibrosis at the cellular level (in words) [1]: can inhibit DDR1-mediated lung fibrosis at the cellular level
inhibition at 0.00244 µM ([1]; Homo sapiens, MRC5, hTGFβ1 2.5 ng/ml, compound C1 2.44 nM): 103%
inhibition at 0.00977 µM ([1]; Homo sapiens, MRC5, hTGFβ1 2.5 ng/ml, compound C1 9.77 nM): 103%
inhibition at 0.03906 µM ([1]; Homo sapiens, MRC5, hTGFβ1 2.5 ng/ml, compound C1 39.06 nM): 103%
inhibition at 0.15625 µM ([1]; Homo sapiens, MRC5, hTGFβ1 2.5 ng/ml, compound C1 156.25 nM): 109%
inhibition at 0.625 µM ([1]; Homo sapiens, MRC5, hTGFβ1 2.5 ng/ml, compound C1 625.00 nM): 48.2%
inhibition at 2.5 µM ([1]; Homo sapiens, MRC5, hTGFβ1 2.5 ng/ml, compound C1 2500.00 nM): 11.7%
Ratio of α-SMA to GAPDH ([1]; compound C1 2.44 nM): 1.1612
α-SMA signal ([1]; compound C1 2.44 nM): 1390356
Ratio of α-SMA to GAPDH ([1]; compound C1 9.77 nM): 1.1646
α-SMA signal ([1]; compound C1 9.77 nM): 1386165
Ratio of α-SMA to GAPDH ([1]; compound C1 39.06 nM): 1.1681
α-SMA signal ([1]; compound C1 39.06 nM): 1304919
Ratio of α-SMA to GAPDH ([1]; compound C1 156.25 nM): 1.2342
α-SMA signal ([1]; compound C1 156.25 nM): 1353660
Ratio of α-SMA to GAPDH ([1]; compound C1 625.00 nM): 0.5459
α-SMA signal ([1]; compound C1 625.00 nM): 629772
Ratio of α-SMA to GAPDH ([1]; compound C1 2500.00 nM): 0.1330
α-SMA signal ([1]; compound C1 2500.00 nM): 4686
Inhibition of the phosphorylation of DDR1 at the cellular level (in words) [7]: can inhibit the phosphorylation of DDR1 at the cellular level
